Laboratory results from patent US4783462A, “3(2H)pyridazinone, and anti-allergic agent containing it” (Nissan Chemical Industries Ltd., priority 1985, dated 1988).

What was measured:
LTC4 [1] = experiment: LTC4 antagonism in isolated guinea-pig trachea, Test method (i) (Table 2); type: cell-based; settings: Cavia porcellus, 5 min, read-out: Antagonism (%)
Protocol: (§1) (i) LTC4 and LTD4 antagonisms in guinea-pig trachea
(§2) Antagonisms for LTC4 and LTD4 were determined in isolated guinea-pig trachea prepared as spiral strip. Tracheal preparations were suspended under 1 g tension in 10 ml organ baths and they were incubated for 1 hr prior to use. Contractile responses to LTC4 (2×10^-8 g/ml) and LTD4 (2×10^-8 g/ml) were obtained after the maximal response to histamine (10^-4 M). Test compounds dissolved in 100% dimethyl sulfoxide were added to the organ baths (final concentration of 10^-5 g/ml or 10^-6 g/ml) 5 min prior to LTC4 and LTD4 addition, and then contractile responses to LTC4 and LTD4 were compared with those of control which was obtained from a paired trachea in the absence of test compounds. LTC4 - and LTD4 -induced contractions were expressed as a percentage of the maximal response to histamine. The antagonism was determined as follows:
(§3) Antagonism (%)=(1.0-% contraction in test/% contraction in […]

LTC4 [2] = experiment: Antagonism in isolated guinea-pig trachea, Test method (i) (Table 3, given as LTC4 antagonism); type: cell-based; settings: Cavia porcellus, 5 min, test compound 10^-5 g/ml, given as LTC4 antagonisms
In short: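 Spiral strips of guinea-pig trachea under 1 g tension, contracted by LTC4 (2×10^-8 g/ml) after maximal histamine (10^-4 M) response. Compounds added at 10^-5 or 10^-6 g/ml final 5 min beforehand; contraction expressed as % histamine maximum and antagonism % calculated against paired untreated trachea.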

[3] = system: anaphylactic bronchoconstriction in passively sensitized guinea-pig; experiment: Effect on anaphylactic bronchoconstriction in passively sensitized guinea-pig; type: in vivo; settings: 2 mg/kg i.v.
Protocol: (iii) Effect on anaphylactic bronchoconstriction in passively sensitized guinea-pig
Male guinea-pigs (350-450 g) were passively sensitized with intravenous (i.v.) injection of 0.125 ml rabbit anti-EA (egg albumin) serum (Cappel Laboratories) 1 day preceding the experiment. […] Sensitized guinea-pigs were anaesthetized with intraperitoneal injection of urethane (1.5 g/kg). The right jugular vein was cannulated for the administration of the all agents and trachea was cannulated to record total pulmonary resistance. Guinea-pigs were artificially ventilated by a small animal respirator (Shinano, Model SN-480-7) set at a stroke volume of 5 ml and a rate of 50 breaths per min. […] The increase in air overflow volume was expressed as a percentage of the maximum bronchoconstriction obtained by clamping off the trachea. Following surgical preparation, the animals were pretreated with indomethacin (1.0 mg/kg, 10 min), pyrilamine (2 mg/kg, 6 min) and propranolol (0.1 mg/kg, 5 min) prior to the EA challenge (0.1 or 10 mg/kg). All test compounds, 2 mg/kg in 3% Tween 80 or 3% PEG-400, were administered 1 min before the EA challenge. Inhibition (%) of bronchoconstriction was determined as follows: Inhibition (%)=(1.0%-maximum bronchoconstriction in test/% maximum bronchoconstriction in control)×100. The maximum bronchoconstriction was obtained within 20 min after the EA challenge.
In the Table, the dose of EA was 10 mg/kg, and each compound was dissolved or suspended in 3% Tween 80.
The dose of EA was 0.1 mg/kg.

ddY strain male mice [4] = experiment: Acute toxicity test, Test method-(2), intraperitoneal; type: in vivo; settings: 7 days
Protocol: The lethal ratio was determined in ddY strain male mice (4 weeks old) at 7 days after the intraperitoneal injection of test compounds.

LTD4 [5] = experiment: LTD4 antagonism in isolated guinea-pig trachea, Test method (i) (Table 4, values with asterisk); type: cell-based; settings: Cavia porcellus, 5 min, test compound 10^-6 g/ml, 5 min prior
Protocol: as §1, §2, §3

ddY strain male mice [6] = experiment: Acute toxicity test, Test method-(1), oral; type: in vivo; settings: 7 days
Protocol: The lethal ratio was determined in ddY strain male mice (4 weeks old) at 7 days after the oral administation of test compounds.

LTD4 [7] = experiment: LTD4 antagonism in isolated guinea-pig trachea with indomethacin, Test method (ii) (Table 4); type: cell-based; settings: Cavia porcellus, 0.5 h, LTD4 2×10^-8 g/ml, test compound 10^-6 g/ml, 30 min prior, 5 μmol indomethacin
Protocol: (ii) LTD4 antagonism in guinea-pig trachea
Antagonism for LTD4 was determined in isolated guinea-pig trachea prepared as spiral strip. Tracheal preparations were suspended under 1 g tension in 10 ml organ baths containing 5 μmol of indomethacin and they were incuated for 1 hr prior to use. Contractile responses to LTD4 (2×10^-8 g/ml) were obtained after the maximal response to histamine (10^-4 M). Test compounds dissolved in 100% dimethyl sulfoxide were added to the organ baths (final concentration of 10^-6 g/ml) 30 min prior to LTD4 addition, and then contractile responses to LTD4 were compared with those of control which was obtained from a paired trachea in the absence of test compounds. LTD4 -induced contractions were expressed as a percentage of the maximal response to histamine. The antagonism was determined as follows:
as §3

[8] = LTC4 2×10^-8 g/ml, test compound 10^-5 g/ml
[9] = Table 5-(1), EA 10 mg/kg, 3% Tween 80
[10] = Table 5-(2), EA 0.1 mg/kg, PEG-400
[11] = Table 5-(2), EA 0.1 mg/kg, Tween 80

CCCc1cc(C(=O)OC)ccc1OCCCNc1cn[nH]c(=O)c1Cl [Compound No. 4, 4-Chloro-5-[3-(2-n-propyl-4-methoxycarbonylphenoxy)propylamino]-3(2H)pyridazinone]
inhibition at 10 µg/mL (LTC4 [1]; [8]): 99% | inhibition at 10 µg/mL (LTC4 [2]): 85% | Inhibition (%) [3, 9]: 27% | Lethal ratio (Death number/Experimental number) (ddY strain male mice [4]; 200 mg/kg intraperitoneal): 0/2 | Lethal ratio (Death number/Experimental number) (ddY strain male mice [4]; 400 mg/kg intraperitoneal): 0/1

CCCc1cc(C(=O)OC)ccc1OCCCNc1cnn(CC)c(=O)c1Cl [Compound No. 6, 4-Chloro-5-[3-(2-n-propyl-4-methoxycarbonylphenoxy)propylamino]-2-ethyl-3(2H)pyridazinone]
inhibition at 10 µg/mL (LTC4 [2]): 96% | inhibition at 1 µg/mL (LTD4 [5]): 78% | Inhibition (%) [3, 10]: 44%

CCCc1cc(C(=O)O)ccc1OCCCNc1cnn(CC)c(=O)c1Cl [Compound No. 7, 4-Chloro-5-[3-(2-n-propyl-4-carboxyphenoxy)propylamino]-2-ethyl-3(2H)pyridazinone]
inhibition at 10 µg/mL (LTC4 [1]; [8]): 95% | inhibition at 10 µg/mL (LTC4 [2]): 82% | Inhibition (%) [3, 9]: 31% | Lethal ratio (Death number/Experimental number) (ddY strain male mice [4]; 200 mg/kg intraperitoneal): 0/2 | Lethal ratio (Death number/Experimental number) (ddY strain male mice [4]; 400 mg/kg intraperitoneal): 0/1

CCn1ncc(NCCc2ccc(OC)cc2)c(Cl)c1=O [Compound No. 20, 4-Chloro-5-[2-(4-methoxyphenyl)ethylamino]-2-ethyl-3(2H)pyridazinone]
inhibition at 10 µg/mL (LTC4 [1]; [8]): 73% | inhibition at 10 µg/mL (LTC4 [2]): 80%

CCCc1cc(OC)ccc1OCCCNc1cnn(CC)c(=O)c1Cl [Compound No. 82, 4-chloro-5-[3-(2-n-propyl-4-methoxyphenoxy)propylamino]-2-ethyl-3(2H)pyridazinone]
inhibition at 10 µg/mL (LTC4 [2]): 100% | Lethal ratio (ddY strain male mice [6]; 400 mg/kg oral): 0/2 | Lethal ratio (ddY strain male mice [6]; 800 mg/kg oral): 0/2

C=CCc1cc(C#N)ccc1OCCCNc1cnn(CC)c(=O)c1Br [Compound No. 117]
inhibition at 10 µg/mL (LTC4 [2]): 98% | inhibition at 1 µg/mL (LTD4 [5]): 67%

CCCc1cc(C#N)ccc1OCC(CNc1cnn(C(C)C)c(=O)c1Cl)OC (centres unmarked) [Compound No. 158, 4-Chloro-5-[3-(2-n-propyl-4-cyanophenoxy)-2-methoxypropylamino]-2-i-propyl-3(2H)pyridazinone]
inhibition at 10 µg/mL (LTC4 [2]): 93% | inhibition at 1 µg/mL (LTD4 [5]): 53%

CCCc1c(OCC(O)COc2ccc3c(=O)cc(C(=O)O)oc3c2CCC)ccc(C(C)=O)c1O (centres unmarked) [FPL-55712, reference compound]
inhibition at 10 µg/mL (LTC4 [1]): 100% | inhibition at 10 µg/mL (LTC4 [2]): 97% | inhibition at 1 µg/mL (LTD4 [5]): 76% | inhibition at 1 µg/mL (LTD4 [7]): 94% | Inhibition (%) [3, 9]: 27% | Inhibition (%) [3, 11]: 60%

CCCc1c(OCCCOc2cnn(C(C)(C)C)c(=O)c2Cl)ccc2c(=O)cc(C(=O)OCC)oc12 [compound 23]
inhibition at 10 µg/mL (LTC4 [1]; [8]): 27% | inhibition at 10 µg/mL (LTC4 [2]): 31%

CCCc1c(OCCCOc2cnn(CC)c(=O)c2Cl)ccc2c(=O)cc(C(=O)OCC)oc12 [compound 25]
inhibition at 10 µg/mL (LTC4 [1]; [8]): 53% | inhibition at 10 µg/mL (LTC4 [2]): 24% | Inhibition (%) [3, 9]: 18%

C=CCc1cc(C#N)ccc1OCCCNc1cnn(C(C)C)c(=O)c1Cl [compound 69]
inhibition at 10 µg/mL (LTC4 [2]): 99% | inhibition at 1 µg/mL (LTD4 [5]): 66% | Inhibition (%) [3, 11]: 51%

Cc1ccccc1OCCCNc1cnn(C(C)C)c(=O)c1Cl [compound 72]
inhibition at 10 µg/mL (LTC4 [2]): 85% | Lethal ratio (ddY strain male mice [6]; 400 mg/kg oral): 0/2

C=CCc1cc(C#N)ccc1OCCCNc1cnn(CC)c(=O)c1Cl [compound 80]
inhibition at 10 µg/mL (LTC4 [2]): 98% | inhibition at 1 µg/mL (LTD4 [5]): 59% | Lethal ratio (ddY strain male mice [6]; 400 mg/kg oral): 0/2 | Lethal ratio (ddY strain male mice [6]; 800 mg/kg oral): 0/2

CCc1cc(C=O)ccc1OCCCNc1cnn(C(C)C)c(=O)c1Cl [compound 94]
inhibition at 10 µg/mL (LTC4 [2]): 98% | Lethal ratio (ddY strain male mice [6]; 400 mg/kg oral): 0/2 | Lethal ratio (ddY strain male mice [6]; 800 mg/kg oral): 0/2

CCc1cc(C(=O)OC)ccc1OCCCNc1cnn(C(C)C)c(=O)c1Cl [compound 101]
inhibition at 10 µg/mL (LTC4 [2]): 92% | Inhibition (%) [3, 10]: 51% | Lethal ratio (ddY strain male mice [6]; 400 mg/kg oral): 0/2 | Lethal ratio (ddY strain male mice [6]; 800 mg/kg oral): 0/2

CCCc1cc(C#N)ccc1OCCCNc1cnn(CC)c(=O)c1Br [compound 116]
inhibition at 10 µg/mL (LTC4 [2]): 90% | inhibition at 1 µg/mL (LTD4 [5]): 82%

CCCc1cc(C(=O)OC)ccc1OCCCNc1cnn(CC)c(=O)c1Br [compound 118]
inhibition at 10 µg/mL (LTC4 [2]): 91% | inhibition at 1 µg/mL (LTD4 [5]): 69%
